According to US10442796B2, “2,3,5-substituted thiophene compound as protein kinase inhibitor” (KOREA INSTITUTE OF SCIENCE AND TECHNOLOGY, priority 2016, dated 2019):

Legend:
Assay in all cases: Kinase inhibitory activity, full kinase panel
Assay type in all cases: biochemical
Details in all cases: single concentration of 1 μM, read-out: %Inhibitory ability
FGR = FGR (Homo sapiens, UniProt P09769)
Protocol: (§1) In order to measure inhibitory activity (% inhibitory ability) against a protein kinase with respect to the compound of the present invention, a biochemical assay was performed in a full kinase panel shown in the following Table 1. As an experimental compound, the (S)-5-((3-fluorophenyl)ethynyl)-N-(piperidin-3-yl)-3-ureidothiophene-2-carboxamide synthesized in Example 24 was used.

MLK1 = MLK1 (Homo sapiens, UniProt P80192)
Protocol: as §1

DRAK2 = DRAK2 (Homo sapiens, UniProt O94768)
Chain of DRAK2 (O94768 whole entry, species assumed): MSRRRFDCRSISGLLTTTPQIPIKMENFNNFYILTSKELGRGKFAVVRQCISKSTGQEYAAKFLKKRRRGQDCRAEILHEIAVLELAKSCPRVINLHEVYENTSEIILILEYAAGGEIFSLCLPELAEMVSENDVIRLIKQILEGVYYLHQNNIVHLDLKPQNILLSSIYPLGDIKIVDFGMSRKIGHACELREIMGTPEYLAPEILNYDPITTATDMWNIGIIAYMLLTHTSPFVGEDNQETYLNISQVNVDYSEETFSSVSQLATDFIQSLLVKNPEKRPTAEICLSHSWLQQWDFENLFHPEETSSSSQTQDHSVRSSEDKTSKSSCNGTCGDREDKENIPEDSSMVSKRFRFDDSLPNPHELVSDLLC
Protocol: as §1

MAP4K2 = MAP4K2 (Homo sapiens, UniProt Q12851)
Protocol: as §1

RIOK3 = RIOK3 (Homo sapiens, UniProt O14730)
Chain of RIOK3 (O14730 whole entry): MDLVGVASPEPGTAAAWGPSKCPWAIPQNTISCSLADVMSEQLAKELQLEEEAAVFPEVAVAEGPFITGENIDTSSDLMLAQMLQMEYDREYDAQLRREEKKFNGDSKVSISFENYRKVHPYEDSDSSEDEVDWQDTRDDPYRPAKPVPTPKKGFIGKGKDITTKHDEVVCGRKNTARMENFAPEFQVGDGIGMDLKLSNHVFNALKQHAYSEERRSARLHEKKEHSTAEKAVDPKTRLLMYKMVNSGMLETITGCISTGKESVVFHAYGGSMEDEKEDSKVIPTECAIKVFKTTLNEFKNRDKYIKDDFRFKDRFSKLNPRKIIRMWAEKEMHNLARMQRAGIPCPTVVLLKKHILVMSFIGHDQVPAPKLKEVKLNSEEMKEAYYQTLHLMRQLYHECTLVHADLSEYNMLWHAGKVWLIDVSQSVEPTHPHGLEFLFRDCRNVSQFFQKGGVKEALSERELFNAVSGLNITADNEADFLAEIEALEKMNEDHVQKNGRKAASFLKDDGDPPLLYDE
Protocol: as §1

LCK = LCK (Homo sapiens, UniProt P06239)
Protocol: as §1

YANK1 = YANK1 (Homo sapiens, UniProt Q8WU08)
Protocol: as §1

AURKB = AURKB (Homo sapiens, UniProt Q96GD4)
Protocol: as §1

TSSK3 = TSSK3 (Homo sapiens, UniProt Q96PN8)
Protocol: as §1

MAP3K2 = MAP3K2 (Homo sapiens, UniProt Q9Y2U5)
Protocol: as §1

TAK1 = TAK1 (Homo sapiens, UniProt O43318)
Protocol: as §1

PHKG2 = PHKG2 (Homo sapiens, UniProt P15735)
Protocol: as §1

MAP4K3 = MAP4K3 (Homo sapiens, UniProt Q8IVH8)
Protocol: as §1

BIKE = BIKE (Homo sapiens, UniProt Q9NSY1)
Chain of BIKE (Q9NSY1 whole entry, species assumed): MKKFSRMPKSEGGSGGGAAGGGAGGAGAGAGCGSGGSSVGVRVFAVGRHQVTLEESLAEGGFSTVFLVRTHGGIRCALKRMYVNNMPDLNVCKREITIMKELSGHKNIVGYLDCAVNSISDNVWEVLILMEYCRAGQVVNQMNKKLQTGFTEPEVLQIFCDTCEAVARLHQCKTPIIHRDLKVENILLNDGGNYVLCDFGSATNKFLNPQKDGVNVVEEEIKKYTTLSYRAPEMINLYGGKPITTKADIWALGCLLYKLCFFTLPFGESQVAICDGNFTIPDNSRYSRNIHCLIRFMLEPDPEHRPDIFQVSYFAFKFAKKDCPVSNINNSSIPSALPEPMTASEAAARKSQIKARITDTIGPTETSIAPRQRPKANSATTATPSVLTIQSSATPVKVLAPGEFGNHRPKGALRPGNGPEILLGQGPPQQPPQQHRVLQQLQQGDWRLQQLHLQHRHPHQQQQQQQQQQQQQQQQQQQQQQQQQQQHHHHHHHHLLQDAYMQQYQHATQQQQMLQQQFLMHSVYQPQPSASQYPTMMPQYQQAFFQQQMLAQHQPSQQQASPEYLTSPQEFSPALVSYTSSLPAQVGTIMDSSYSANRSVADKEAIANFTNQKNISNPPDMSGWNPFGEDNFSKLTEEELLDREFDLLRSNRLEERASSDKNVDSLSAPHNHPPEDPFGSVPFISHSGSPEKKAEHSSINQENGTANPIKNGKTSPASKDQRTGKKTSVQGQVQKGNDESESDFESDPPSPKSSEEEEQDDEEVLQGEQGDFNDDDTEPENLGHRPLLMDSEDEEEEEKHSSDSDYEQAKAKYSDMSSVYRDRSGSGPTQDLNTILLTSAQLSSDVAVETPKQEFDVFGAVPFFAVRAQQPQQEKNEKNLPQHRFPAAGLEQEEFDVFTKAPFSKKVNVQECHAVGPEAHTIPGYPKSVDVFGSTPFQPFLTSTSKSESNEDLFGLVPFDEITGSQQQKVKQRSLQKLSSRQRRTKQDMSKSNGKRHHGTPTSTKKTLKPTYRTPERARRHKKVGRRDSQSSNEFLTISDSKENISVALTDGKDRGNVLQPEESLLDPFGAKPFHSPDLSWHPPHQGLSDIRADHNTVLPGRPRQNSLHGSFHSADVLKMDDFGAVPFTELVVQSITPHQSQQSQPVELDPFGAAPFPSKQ
Protocol: as §1

MKNK2 = MKNK2 (Homo sapiens, UniProt Q9HBH9)
Protocol: as §1

SIK2 = SIK2 (Homo sapiens, UniProt Q9H0K1)
Chain of SIK2 (Q9H0K1 whole entry): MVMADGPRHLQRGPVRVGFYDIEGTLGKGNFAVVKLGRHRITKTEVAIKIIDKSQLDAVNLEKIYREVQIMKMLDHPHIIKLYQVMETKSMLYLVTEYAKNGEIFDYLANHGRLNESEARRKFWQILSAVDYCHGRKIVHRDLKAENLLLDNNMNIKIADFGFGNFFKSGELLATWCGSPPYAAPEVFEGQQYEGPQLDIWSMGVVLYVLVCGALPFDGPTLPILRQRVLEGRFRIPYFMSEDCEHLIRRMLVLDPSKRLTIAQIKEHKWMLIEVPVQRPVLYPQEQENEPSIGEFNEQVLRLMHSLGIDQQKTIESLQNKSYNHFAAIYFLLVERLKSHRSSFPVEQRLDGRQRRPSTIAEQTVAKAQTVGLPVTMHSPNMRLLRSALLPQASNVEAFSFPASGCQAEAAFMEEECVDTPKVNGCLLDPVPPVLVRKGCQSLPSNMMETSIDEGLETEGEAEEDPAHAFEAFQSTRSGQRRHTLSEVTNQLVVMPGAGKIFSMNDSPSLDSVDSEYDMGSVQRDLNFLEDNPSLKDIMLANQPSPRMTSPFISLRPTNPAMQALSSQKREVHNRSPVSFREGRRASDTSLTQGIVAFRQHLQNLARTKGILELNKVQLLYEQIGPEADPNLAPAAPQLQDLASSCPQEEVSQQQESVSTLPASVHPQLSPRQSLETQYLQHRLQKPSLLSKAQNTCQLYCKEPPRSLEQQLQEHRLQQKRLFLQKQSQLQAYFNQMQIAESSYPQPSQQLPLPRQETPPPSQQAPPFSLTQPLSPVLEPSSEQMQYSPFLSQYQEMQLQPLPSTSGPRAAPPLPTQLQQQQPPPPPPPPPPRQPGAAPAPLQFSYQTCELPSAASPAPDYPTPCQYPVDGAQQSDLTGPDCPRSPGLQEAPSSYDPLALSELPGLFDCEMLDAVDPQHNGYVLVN
Protocol: as §1

HCK = HCK (Homo sapiens, UniProt P08631)
Chain of HCK (P08631 whole entry, species assumed): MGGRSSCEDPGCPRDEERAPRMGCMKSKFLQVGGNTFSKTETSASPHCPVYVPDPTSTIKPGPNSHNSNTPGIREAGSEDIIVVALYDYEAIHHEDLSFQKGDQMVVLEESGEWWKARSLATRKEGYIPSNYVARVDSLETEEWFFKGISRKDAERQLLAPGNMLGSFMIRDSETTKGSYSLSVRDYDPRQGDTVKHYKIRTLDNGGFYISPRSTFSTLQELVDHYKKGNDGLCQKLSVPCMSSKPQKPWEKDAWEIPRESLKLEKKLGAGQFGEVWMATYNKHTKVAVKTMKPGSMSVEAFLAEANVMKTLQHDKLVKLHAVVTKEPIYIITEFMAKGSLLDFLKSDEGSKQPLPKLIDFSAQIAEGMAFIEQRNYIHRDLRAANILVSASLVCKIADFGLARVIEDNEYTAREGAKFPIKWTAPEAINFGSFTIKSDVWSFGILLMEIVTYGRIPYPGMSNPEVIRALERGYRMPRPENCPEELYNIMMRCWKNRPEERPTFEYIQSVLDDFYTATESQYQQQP
Protocol: as §1

MEK5 = MEK5 (Homo sapiens, UniProt Q13163)
Protocol: as §1

PAK4 = PAK4 (Homo sapiens, UniProt O96013)
Protocol: as §1

TRKB = TRKB (Homo sapiens, UniProt Q16620)
Protocol: as §1

FYN = FYN (Homo sapiens, UniProt P06241)
Protocol: as §1

DAPK3 = DAPK3 (Homo sapiens, UniProt O43293)
Protocol: as §1

LRRK2 = LRRK2 (Homo sapiens, UniProt Q5S007)
Protocol: as §1

AAK1 = AAK1 (Homo sapiens, UniProt Q2M2I8)
Protocol: as §1

AXL = AXL (Homo sapiens, UniProt P30530)
Protocol: as §1

CHEK2 = CHEK2 (Homo sapiens, UniProt O96017)
Protocol: as §1

PRKG2 = PRKG2 (Homo sapiens, UniProt Q13237)
Protocol: as §1

PHKG1 = PHKG1 (Homo sapiens, UniProt Q16816)
Protocol: as §1

FLT3 = FLT3 (Homo sapiens, UniProt P36888)
Protocol: as §1

CHEK1 = CHEK1 (Homo sapiens, UniProt O14757)
Protocol: as §1

TGFBR2 = TGFBR2 (Homo sapiens, UniProt P37173)
Chain of TGFBR2 (P37173 23-567, species assumed): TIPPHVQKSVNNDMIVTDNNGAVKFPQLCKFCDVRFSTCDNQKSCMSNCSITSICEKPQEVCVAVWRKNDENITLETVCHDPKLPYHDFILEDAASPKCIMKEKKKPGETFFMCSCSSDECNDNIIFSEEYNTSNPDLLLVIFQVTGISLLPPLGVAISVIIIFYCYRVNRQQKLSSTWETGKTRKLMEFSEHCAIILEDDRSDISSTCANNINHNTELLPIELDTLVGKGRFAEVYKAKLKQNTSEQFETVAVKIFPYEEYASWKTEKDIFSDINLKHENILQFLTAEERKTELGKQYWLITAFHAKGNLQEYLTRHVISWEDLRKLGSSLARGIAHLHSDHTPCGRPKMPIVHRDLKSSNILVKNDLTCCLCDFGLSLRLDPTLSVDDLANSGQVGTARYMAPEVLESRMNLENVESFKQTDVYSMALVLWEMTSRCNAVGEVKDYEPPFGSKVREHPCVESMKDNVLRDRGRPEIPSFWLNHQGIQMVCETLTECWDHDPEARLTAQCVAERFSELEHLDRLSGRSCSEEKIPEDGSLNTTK
Protocol: as §1

MEK2 = MEK2 (Homo sapiens, UniProt P36507)
Protocol: as §1

IRAK4 = IRAK4 (Homo sapiens, UniProt Q9NWZ3)
Protocol: as §1

DCAMKL1 = DCAMKL1 (Homo sapiens, UniProt O15075)
Chain of DCAMKL1 (O15075 whole entry, species assumed): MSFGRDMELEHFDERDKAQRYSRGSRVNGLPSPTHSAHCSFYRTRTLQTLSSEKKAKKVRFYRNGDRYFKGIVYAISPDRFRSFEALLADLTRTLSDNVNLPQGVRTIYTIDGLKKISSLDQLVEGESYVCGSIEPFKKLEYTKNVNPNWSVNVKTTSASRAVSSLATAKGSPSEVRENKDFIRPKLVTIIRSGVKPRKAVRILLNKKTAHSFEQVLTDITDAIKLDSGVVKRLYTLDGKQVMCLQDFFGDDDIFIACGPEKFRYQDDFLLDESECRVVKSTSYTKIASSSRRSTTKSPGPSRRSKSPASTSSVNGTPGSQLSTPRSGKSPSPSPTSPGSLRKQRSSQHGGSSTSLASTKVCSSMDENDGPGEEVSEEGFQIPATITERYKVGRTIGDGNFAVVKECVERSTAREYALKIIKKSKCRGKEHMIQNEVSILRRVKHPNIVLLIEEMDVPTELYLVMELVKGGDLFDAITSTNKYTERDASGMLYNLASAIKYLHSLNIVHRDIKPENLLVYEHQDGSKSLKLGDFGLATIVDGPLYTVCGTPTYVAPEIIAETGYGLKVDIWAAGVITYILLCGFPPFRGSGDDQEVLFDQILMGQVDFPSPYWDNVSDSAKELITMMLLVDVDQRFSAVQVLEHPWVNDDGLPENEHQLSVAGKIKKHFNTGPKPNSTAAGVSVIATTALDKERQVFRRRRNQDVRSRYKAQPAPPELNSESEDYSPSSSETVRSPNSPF
Protocol: as §1

ULK1 = ULK1 (Homo sapiens, UniProt O75385)
Protocol: as §1

KIT = KIT (Homo sapiens, UniProt P10721)
Protocol: as §1

FLT4 = FLT4 (Homo sapiens, UniProt P35916)
Protocol: as §1

DAPK2 = DAPK2 (Homo sapiens, UniProt Q9UIK4)
Protocol: as §1

TRKA = TRKA (Homo sapiens, UniProt P04629)
Protocol: as §1

CAMK1 = CAMK1 (Homo sapiens, UniProt Q14012)
Protocol: as §1

EGFR(T790M) = EGFR(T790M) (Homo sapiens, UniProt P00533, T790M)
Protocol: as §1

ANKK1 = ANKK1 (Homo sapiens, UniProt Q8NFD2)
Protocol: as §1

inhibition at 1 µM (FGR): 94.1%
inhibition at 1 µM (MLK1): 95.9%
inhibition at 1 µM (DRAK2): 96%
inhibition at 1 µM (MAP4K2): 92.7%
inhibition at 1 µM (RIOK3): 79%
inhibition at 1 µM (LCK): 72%
inhibition at 1 µM (YANK1): 95.5%
inhibition at 1 µM (AURKB): 66%
inhibition at 1 µM (TSSK3): 72%
inhibition at 1 µM (MAP3K2): 97.7%
inhibition at 1 µM (TAK1): 91.5%
inhibition at 1 µM (PHKG2): 89%
inhibition at 1 µM (MAP4K3): 69%
inhibition at 1 µM (BIKE): 77%
inhibition at 1 µM (MKNK2): 92.7%
inhibition at 1 µM (SIK2): 73%
inhibition at 1 µM (HCK): 94.9%
inhibition at 1 µM (MEK5): 99.9%
inhibition at 1 µM (PAK4): 92.2%
inhibition at 1 µM (TRKB): 97.2%
inhibition at 1 µM (FYN): 91.5%
inhibition at 1 µM (DAPK3): 84%
inhibition at 1 µM (LRRK2): 72%
inhibition at 1 µM (AAK1): 80%
inhibition at 1 µM (AXL): 87%
inhibition at 1 µM (CHEK2): 100%
inhibition at 1 µM (PRKG2): 96.6%
inhibition at 1 µM (PHKG1): 98.4%
inhibition at 1 µM (FLT3): 99.6%
inhibition at 1 µM (CHEK1): 96.1%
inhibition at 1 µM (TGFBR2): 72%
inhibition at 1 µM (MEK2): 93.3%
inhibition at 1 µM (IRAK4): 99.8%
inhibition at 1 µM (DCAMKL1): 80%
inhibition at 1 µM (ULK1): 99.8%
inhibition at 1 µM (KIT): 99.8%
inhibition at 1 µM (FLT4): 94.5%
inhibition at 1 µM (DAPK2): 88%
inhibition at 1 µM (TRKA): 100%
inhibition at 1 µM (CAMK1): 67%
inhibition at 1 µM (EGFR(T790M)): 85%
inhibition at 1 µM (ANKK1): 93.3%
Structure (SMILES): Cc1ccc(C#Cc2cc(NC(N)=O)c(C(=O)N[C@H]3CCCNC3)s2)cc1 [Example 24, (S)—N-(piperidin-3-yl)-5-(p-tolylethynyl)-3-ureidothiophene-2-carboxamide]
